Laboratory results from patent US20070015771A1, “Lonidamine analogs” (Threshold pharmaceuticals, Inc., priority 2004, published 2007).
Like-named read-outs stand apart in the source and are kept apart here.

Columns and labels:
[1] = test system: H460 cells; test: Antiproliferation assay (Alamar Blue), H460 cells; format: cell-based
Experimental: To determine the effect of lonidamine and analogs thereof on cell proliferation, the antiproliferative activity of these compounds was tested in a multi-well Alamar Blue based assay (at 2 h and 3 days). Cell growth in the presence and absence of the test compound (compounds 1-22) was compared, as measured by a fluorescence plate reader at excitation 550 nm and emission 590 nm (see Biosource International Inc., Tech Application Notes, Use of Alamar Blue in the measurement of Cell Viability and Toxicity, Determining IC50). H460 cells (ATCC HTB-177 ([…]), 4,000 cells/well/200 μl) and LNCap cells (ATCC CRL-1740, 6,000 cells/well/200 μl) were seeded in a 96 well plate in RPMI medium (Invitrogen Corporation, Carlsbad, Calif.). After 24 hours, these plates were divided into 3 groups—Control group, 2 h treatment group and 3 day treatment group. In the 2 h treatment group, after 2 h the cells were rinsed to remove the test compound and incubated for 3 days, followed by staining with AlamarBlue. The cells in the 3 day treatment group were incubated for 3 days, followed by staining with AlamarBlue. In the Control group, AlamarBlue was added to the plate at (i) day 0 and (ii) day 3 and measured to establish the control reading.

[2] = test system: PWR-1E cells; test: Antiproliferation assay 3 days, PWR-1E cells (Example 49); format: cell-based; conditions: read-out: PWR1e cell line IC50
Experimental: (§1) To determine the effect of lonidamine analogs thereof on cell proliferation, the antiproliferative activity of these compounds was tested in a multi-well Alamar Blue based assay (at 3 days). Cell growth in the presence and absence of the test compound was compared, as measured by a fluoresence plate reader at excitation 550 nm and emission 590 nm (see Biosource International Inc., Tech Application Notes, Use of Alamar Blue in the measurement of Cell Viability and Toxity, Determining IC50). The following cell lines were tested: PWR-1E cells ((ATCC CRL-11611), 3500 cells/well/200 μl in Keratinocyte SFM medium (Gibco Products, Invitrogen Corporation, Carlsbad, Calif.)); DU-145 cells ((ATCC HTB-81), 4000 cells/well/200 μl in MEM Eagles medium (ATCC, Manassas, Va.)); PC3 cells ((ATCC CRL-1435), 4000 cells/200 μl in Modified HAM's F12 medium (ATCC, Manassas, Va.)); PNt2 cells ((Sigma-Aldrich, 95012613-1 VL), 4000 cells/well/200 μl in RPMI medium (Gibco Products, Invitrogen Corporation, Carlsbad, Calif.), BPH-1 ((DSMZ ACC-143), 4000 cells/well/200 μl in RPMI medium (Gibco Products, Invitrogen Corporation, Carlsbad, Calif), and NCI-H460 cells ((ATCC HTB-177), 4000 cells/well/200 μl in RPMI medium (Gibco Products, Invitrogen Corporation, Carlsbad, Calif.)). The cells were seeded in a 96 well plate in a medium specified above. After 24 hours, these plates were divided into 2 groups—Control group and 3 day treatment group. A test compound was added to each plate in the treatment groups at concentrations of […] as tabulated in Table 1 (in 2 μl 1 of 100% DMSO, final DMSO concentration 1% in all wells). For NCI-H460 cells, test compounds were added to each plate in the treatment groups at concentrations of 600, 300, 100, 30, 10, 3, and 1 μM (in 2 μl of 100% DMSO, final DMSO concentration 1% in all wells). The cells in the 3 day treatment group were incubated for 3 days, followed by staining with AlamarBlue. In the Control group, AlamarBlue was added to the plate at (i) day 0 and (ii) day 3 and measured to establish the control reading. […] For the NCI-H460 cells, the capacity of the cells to proliferate was measured 5 hours after addition of AlamarBlue using the same fluorescence plate reader as stated above.

[3] = test system: SH rat prostate; test: 5 day systemic administration in male SH rats, prostate; format: in vivo; set-up: inhibition in vivo: dose or concentration left out as unconfirmed
Experimental: The effect of test compounds (lonidamine and lonidamine analogs) on the SH rat prostate was determined as follows. The test compound was orally administered daily for 5 days to male, SH rat, (n=6, 14 weeks old, Charles River Labs) at 50 mg/ml concentrations (as a 0.5% carboxymethylcellulose formulation). The control rats received an equal amount of the vehicle ([…]). Blood samples were collected 2 hours after administration on day 6, for pharmokinetic analysis of the compounds. On day 6 the rats were sacrificed and the entire prostate and the individual lobes (e.g., the ventral, dorso-lateral, and anterior lobes) were removed and weighed to measure absolute weights. Relative weights of prostate and individual lobes were calculated by dividing the absolute weight by the total body weight of the […]. Relative weights of the entire prostate, the dorsal prostate, and the ventral prostate were calculated by dividing the absolute weight by the total weight of the mouse. The histomorphology of the prostate was also analyzed and compared to that of the control or untreated prostate.

[4] = test system: testes; test: 5 day systemic administration in male SH rats, testis; format: in vivo, rat; set-up: inhibition in vivo: dose or concentration left out as unconfirmed
[5] = test system: NCI-H460 cells; test: Antiproliferation assay 3 days, NCI-H460 cells; format: cell-based; conditions: read-out: NCI-H460 cell line IC50
Experimental: as §1

[6] = 3 day treatment, read-out: GI50 H460 cell 3 days
[7] = read-out: GI50 H460 cell 2 hr, 2 h treatment then 3 days incubation
[8] = male SH rats, oral daily for 5 days at 50 mg/ml, day 6
[9] = Homo sapiens, PWR-1E, 72 h, 3 day treatment
[10] = Homo sapiens, NCI-H460, 72 h, 3 day treatment

O=C(Nc1ccccn1)c1nn(Cc2ccc(Cl)cc2Cl)c2ccccc12 [Compound 7]
GI50 [1, 6]: 20 µM
GI50 [1, 7]: > 400 µM

O=C(Nc1ccc(F)c(F)c1)c1nn(Cc2ccc(Cl)cc2Cl)c2ccccc12 [Compound 8]
GI50 [1, 6]: 316 µM
GI50 [1, 7]: > 400 µM
IC50 ([2]; 3 day treatment): > 3 µM

O=C(Nc1nccs1)c1nn(Cc2ccc(Cl)cc2Cl)c2ccccc12 [Compound 9]
GI50 [1, 6]: > 400 µM
GI50 [1, 7]: > 400 µM
IC50 ([2]; 3 day treatment): > 100 µM

O=C(NCCO)c1nn(Cc2ccc(Cl)cc2Cl)c2ccccc12 [Compound 10]
GI50 [1, 6]: 50 µM
GI50 [1, 7]: 78 µM
IC50 ([2]; 3 day treatment): 14 µM

O=C(OC1O[C@H](C(=O)O)[C@@H](O)[C@H](O)[C@H]1O)c1nn(Cc2ccc(Cl)cc2Cl)c2ccccc12 (some centres unmarked) [Compound 15]
GI50 ([1]; Homo sapiens, NCI-H460, 72 h, 3 day treatment, read-out: GI50 H460 cell 3 days): 316 µM
GI50 ([1]; Homo sapiens, NCI-H460, read-out: GI50 H460 cell 2 hr, 2 h treatment then 3 days incubation): > 400 µM
IC50 ([2]; Homo sapiens, PWR-1E, 72 h): 80 µM

O=C(O)c1nn(Cc2ccc(-c3ccccc3)cc2)c2ccccc12 [Compound 22]
GI50 [1, 6]: 158 µM
GI50 [1, 7]: > 400 µM
IC50 ([2]; 3 day treatment): 25 µM

NC(=O)c1nn(Cc2c(Cl)cccc2Cl)c2ccccc12 [Compound 25]
IC50 ([2]; Homo sapiens, PWR-1E, 72 h): > 100 µM

O=C(O)c1nn(Cc2ccccc2Cl)c2ccccc12 [Compound 27]
IC50 ([2]; 3 day treatment): 30 µM

CNC(=O)c1nn(Cc2c(Cl)cccc2Cl)c2ccccc12 [Compound 37]
IC50 ([2]; 3 day treatment): 36 µM

O=C(NCCN1CCOCC1)c1nn(Cc2c(Cl)cccc2Cl)c2ccccc12 [Compound 43]
IC50 ([2]; 3 day treatment): 45 µM

NNC(=O)c1nn(Cc2c(Cl)cccc2Cl)c2ccccc12 [Compound 44]
IC50 ([2]; 3 day treatment): > 10 µM

O=C(NC1CC1)c1nn(Cc2c(Cl)cccc2Cl)c2ccccc12 [Compound 46]
IC50 ([2]; 3 day treatment): > 30 µM

O=C(NO)c1nn(Cc2ccc(Cl)cc2Cl)c2ccc(F)cc12 [Compound 47]
IC50 ([2]; 3 day treatment): 5.6 µM

O=C(c1nn(Cc2ccc(Cl)cc2Cl)c2ccccc12)N1CCOCC1 [Compound 48]
IC50 ([2]; 3 day treatment): > 10 µM
Prostate shrinkage [3, 8]: 3.3%
Testis shrinkage [4, 8]: 4.3%

CN(C)C(=O)c1nn(Cc2ccc(Cl)cc2Cl)c2ccccc12 [Compound 49]
IC50 ([2]; 3 day treatment): > 100 µM

CC(C)NC(=O)c1nn(Cc2ccccc2)c2ccccc12 [Compound 50]
IC50 ([2]; 3 day treatment): 23 µM

Cc1ccc2c(c1)c(C(=O)NO)nn2Cc1ccc(Cl)cc1Cl [Compound 52]
IC50 ([2]; 3 day treatment): 0.34 µM

CONC(=O)c1nn(Cc2ccc(Cl)cc2Cl)c2ccc(C)cc12 [Compound 57]
IC50 ([2]; 3 day treatment): 39 µM

O=Cc1nn(Cc2ccc(Cl)cc2Cl)c2ccccc12 [Compound 61]
IC50 ([2]; Homo sapiens, PWR-1E, 72 h): 1.5 µM

CC(c1ccc(Cl)cc1Cl)n1nc(C(=O)O)c2ccccc21 (centres unmarked) [Compound 67]
IC50 ([2]; Homo sapiens, PWR-1E, 72 h): 21 µM
IC50 ([5]; Homo sapiens, NCI-H460, 72 h): 148 µM
inhibition in vivo ([3]; Rattus norvegicus, po, 144 h, read-out: Prostate shrinkage): 18.2%
inhibition in vivo ([4]; Rattus norvegicus, po, 144 h, read-out: Testis shrinkage): 34.9%

O=C(O)c1nn(Cc2cc3c(cc2Cl)OCO3)c2ccccc12 [Compound 69]
IC50 ([2]; Homo sapiens, PWR-1E, 72 h): 145 µM

Cc1noc(C)c1Cn1nc(C(=O)O)c2ccccc21 [Compound 71]
IC50 ([2]; Homo sapiens, PWR-1E, 72 h): > 300 µM

COc1ccccc1Cn1nc(C(=O)O)c2ccccc21 [Compound 72]
IC50 ([2]; Homo sapiens, PWR-1E, 72 h): 245 µM

O=C(O)c1nn(Cc2ccc(Cl)nc2)c2ccccc12 [Compound 73]
IC50 ([2]; Homo sapiens, PWR-1E, 72 h): > 300 µM

O=C(O)c1nn(Cc2ccc3c(c2)OCO3)c2ccccc12 [Compound 74]
IC50 ([2]; Homo sapiens, PWR-1E, 72 h): > 100 µM
IC50 ([5]; Homo sapiens, NCI-H460, 72 h): 290 µM

Cc1cc(Cn2nc(C(=O)O)c3ccccc32)n(C)n1 [Compound 75]
IC50 ([2]; Homo sapiens, PWR-1E, 72 h): > 300 µM
IC50 ([5]; Homo sapiens, NCI-H460, 72 h): > 180 µM

O=C(O)c1nn(Cc2ccccc2O)c2ccccc12 [Compound 76]
IC50 ([2]; Homo sapiens, PWR-1E, 72 h): 288 µM

O=C(O)c1nn(Cc2ccc(O)cc2)c2ccccc12 [Compound 77]
IC50 ([2]; Homo sapiens, PWR-1E, 72 h): > 100 µM

O=C(O)c1nn(Cc2ccccn2)c2ccccc12 [Compound 84]
IC50 ([5]; Homo sapiens, NCI-H460, 72 h): > 600 µM

O=C(O)c1nn(Cc2cccnc2)c2ccccc12 [Compound 85]
IC50 ([5]; Homo sapiens, NCI-H460, 72 h): > 600 µM

O=C(O)c1nn(Cc2ccncc2)c2ccccc12 [Compound 86]
IC50 ([5]; Homo sapiens, NCI-H460, 72 h): > 600 µM

O=C(O)c1nn(Cc2cnc(Cl)c(Cl)c2)c2ccccc12 [Compound 87]
IC50 ([5]; Homo sapiens, NCI-H460, 72 h): 323 µM

O=Cc1nc(Cc2ccc(Cl)cc2Cl)n2ccccc12 [Compound 88]
IC50 [2, 9]: 12 µM
IC50 [5, 10]: 48 µM

O=C(O)c1nc(Cc2ccc(Cl)cc2Cl)n2ccccc12 [Compound 89]
IC50 ([2]; 3 day treatment): 10 µM
IC50 ([5]; 3 day treatment): 41 µM

OCc1nc(Cc2ccc(Cl)cc2Cl)n2ccccc12 [Compound 92]
IC50 [2, 9]: 11 µM
IC50 [5, 10]: 43 µM

O=C(O)c1nn(Cc2ccc(Cl)nc2)c2ccccc12 [Compound 94]
IC50 ([5]; Homo sapiens, NCI-H460, 72 h): > 600 µM

N#Cc1cc(Cl)ccc1Cn1nc(C(=O)O)c2ccccc21 [Compound 95]
IC50 ([2]; Homo sapiens, PWR-1E, 72 h): 85 µM
IC50 ([5]; Homo sapiens, NCI-H460, 72 h): 275 µM

O=C(O)c1nn(C(=O)c2ccc(Cl)cc2Cl)c2ccccc12 [Compound 98]
IC50 [2, 9]: 4 µM

O=C(O)c1cn(Cc2cc(Cl)ccc2Cl)c2ccccc12 [Compound 100]
IC50 ([5]; Homo sapiens, NCI-H460, 72 h): 125 µM

O=C(O)c1nn(Cc2cc(Cl)ccc2F)c2ccccc12 [Compound 103]
IC50 ([2]; Homo sapiens, PWR-1E, 72 h): 132 µM
IC50 ([5]; Homo sapiens, NCI-H460, 72 h): 219 µM

O=C(O)c1nn(S(=O)(=O)c2ccc(Cl)cc2Cl)c2ccccc12 [Compound 104]
IC50 ([2]; 3 day treatment): 19 µM
IC50 ([5]; 3 day treatment): 195 µM

O=C(O)c1c2ccccc2nn1S(=O)(=O)c1ccc(Cl)cc1Cl [Compound 105]
IC50 ([2]; 3 day treatment): 21 µM
IC50 ([5]; 3 day treatment): 182 µM

O=C(O)c1nn(Cc2cc(C(F)(F)F)ccc2Cl)c2ccccc12 [Compound 106]
IC50 ([5]; Homo sapiens, NCI-H460, 72 h): 4 µM
